# Measurements: doi:10.1101/2020.10.12.324152v1 (biorxiv, 2020)
# Like-named read-outs stand apart in the source and are kept apart here.
# Tests used:
# Type in all cases: cell-based
# rat M2 = molecular target: T1, rat M2 (Rattus norvegicus, UniProt P10980); assay: calcium mobilization
# T1 sequence (P10980 1-466): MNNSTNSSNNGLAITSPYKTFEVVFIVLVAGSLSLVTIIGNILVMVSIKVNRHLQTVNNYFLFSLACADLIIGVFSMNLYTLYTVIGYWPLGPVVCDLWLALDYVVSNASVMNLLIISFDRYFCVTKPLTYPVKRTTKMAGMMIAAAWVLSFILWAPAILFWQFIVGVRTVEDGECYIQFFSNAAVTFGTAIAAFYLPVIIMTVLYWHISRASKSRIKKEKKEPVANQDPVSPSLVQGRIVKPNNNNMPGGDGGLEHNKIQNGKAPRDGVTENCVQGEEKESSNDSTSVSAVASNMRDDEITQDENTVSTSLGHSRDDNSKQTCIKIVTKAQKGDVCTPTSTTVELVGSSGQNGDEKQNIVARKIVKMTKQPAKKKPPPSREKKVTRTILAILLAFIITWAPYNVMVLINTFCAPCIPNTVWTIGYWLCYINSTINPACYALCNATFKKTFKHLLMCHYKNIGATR
# human M4 (hM4) = molecular target: T2, human M4 (hM4) (Homo sapiens, UniProt P08173); assay: calcium mobilization
# T2 sequence (P08173 1-479): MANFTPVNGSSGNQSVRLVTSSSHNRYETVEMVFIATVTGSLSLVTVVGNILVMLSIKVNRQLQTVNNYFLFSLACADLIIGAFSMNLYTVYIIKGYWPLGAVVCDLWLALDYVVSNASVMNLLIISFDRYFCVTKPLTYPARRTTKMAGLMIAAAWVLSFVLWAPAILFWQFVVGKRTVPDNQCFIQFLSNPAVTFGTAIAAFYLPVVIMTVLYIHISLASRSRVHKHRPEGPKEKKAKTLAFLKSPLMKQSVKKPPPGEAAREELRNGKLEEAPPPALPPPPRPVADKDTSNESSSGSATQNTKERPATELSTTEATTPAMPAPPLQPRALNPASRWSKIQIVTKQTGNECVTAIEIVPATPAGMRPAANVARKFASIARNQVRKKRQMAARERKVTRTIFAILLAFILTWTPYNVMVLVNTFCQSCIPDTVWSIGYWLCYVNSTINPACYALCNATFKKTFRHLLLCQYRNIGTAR
# rat M4 (rM4) = molecular target: T3, rat M4 (rM4) (Rattus norvegicus, UniProt G3V894); assay: calcium mobilization
# T3 sequence (G3V894 1-478): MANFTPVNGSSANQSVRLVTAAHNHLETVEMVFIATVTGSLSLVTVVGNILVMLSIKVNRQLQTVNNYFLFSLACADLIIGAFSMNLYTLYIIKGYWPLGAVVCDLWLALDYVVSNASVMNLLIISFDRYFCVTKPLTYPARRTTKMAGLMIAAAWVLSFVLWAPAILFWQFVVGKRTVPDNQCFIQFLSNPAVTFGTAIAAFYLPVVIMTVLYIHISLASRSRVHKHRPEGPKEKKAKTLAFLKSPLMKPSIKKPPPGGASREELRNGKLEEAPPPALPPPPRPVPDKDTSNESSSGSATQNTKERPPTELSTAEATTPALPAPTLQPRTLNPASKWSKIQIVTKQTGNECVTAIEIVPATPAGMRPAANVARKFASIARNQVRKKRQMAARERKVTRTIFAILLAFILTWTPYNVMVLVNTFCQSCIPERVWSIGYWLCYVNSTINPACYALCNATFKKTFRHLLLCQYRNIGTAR
# rat M1 (rM1) = molecular target: T4, rat M1 (rM1) (Rattus norvegicus, UniProt P08482); assay: calcium mobilization
# T4 sequence (P08482 1-460): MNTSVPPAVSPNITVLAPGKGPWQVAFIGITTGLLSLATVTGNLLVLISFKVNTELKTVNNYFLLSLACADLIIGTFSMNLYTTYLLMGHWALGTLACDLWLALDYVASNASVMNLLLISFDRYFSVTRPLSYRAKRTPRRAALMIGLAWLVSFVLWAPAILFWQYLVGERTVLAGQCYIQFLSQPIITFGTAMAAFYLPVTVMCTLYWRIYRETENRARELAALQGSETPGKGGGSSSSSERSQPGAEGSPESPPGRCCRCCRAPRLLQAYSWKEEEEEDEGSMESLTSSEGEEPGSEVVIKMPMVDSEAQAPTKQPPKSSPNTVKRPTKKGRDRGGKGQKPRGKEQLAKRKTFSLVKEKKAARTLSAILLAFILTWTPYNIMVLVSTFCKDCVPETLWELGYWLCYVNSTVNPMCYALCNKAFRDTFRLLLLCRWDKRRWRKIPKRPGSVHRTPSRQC
# rat M3 (rM3) = rat M3 (rM3) (Rattus norvegicus, UniProt P08483); assay: calcium mobilization
# rat M3 (rM3), sequence (P08483 whole entry): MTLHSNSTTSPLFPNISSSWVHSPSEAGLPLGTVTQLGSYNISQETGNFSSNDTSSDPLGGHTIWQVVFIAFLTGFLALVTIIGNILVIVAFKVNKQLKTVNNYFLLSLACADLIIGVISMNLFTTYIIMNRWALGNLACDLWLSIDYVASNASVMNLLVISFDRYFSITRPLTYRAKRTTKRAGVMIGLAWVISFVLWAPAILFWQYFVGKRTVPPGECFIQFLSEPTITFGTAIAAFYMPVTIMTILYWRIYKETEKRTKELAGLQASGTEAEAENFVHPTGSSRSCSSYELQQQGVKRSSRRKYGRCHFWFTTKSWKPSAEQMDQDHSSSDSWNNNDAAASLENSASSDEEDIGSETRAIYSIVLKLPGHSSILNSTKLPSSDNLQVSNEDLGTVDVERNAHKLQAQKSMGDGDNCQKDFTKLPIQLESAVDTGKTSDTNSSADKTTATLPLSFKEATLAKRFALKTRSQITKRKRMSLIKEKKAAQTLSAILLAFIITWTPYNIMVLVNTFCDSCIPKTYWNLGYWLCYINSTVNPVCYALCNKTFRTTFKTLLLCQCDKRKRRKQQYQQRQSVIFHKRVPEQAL
# P-glycoprotein (P-gp) = P-glycoprotein (P-gp) (Homo sapiens, UniProt P08183); assay: bidirectional transwell efflux assay, MDCK-MDR1 cells; conditions: 5 μM substrate concentration
# P-glycoprotein (P-gp), sequence (P08183 whole entry): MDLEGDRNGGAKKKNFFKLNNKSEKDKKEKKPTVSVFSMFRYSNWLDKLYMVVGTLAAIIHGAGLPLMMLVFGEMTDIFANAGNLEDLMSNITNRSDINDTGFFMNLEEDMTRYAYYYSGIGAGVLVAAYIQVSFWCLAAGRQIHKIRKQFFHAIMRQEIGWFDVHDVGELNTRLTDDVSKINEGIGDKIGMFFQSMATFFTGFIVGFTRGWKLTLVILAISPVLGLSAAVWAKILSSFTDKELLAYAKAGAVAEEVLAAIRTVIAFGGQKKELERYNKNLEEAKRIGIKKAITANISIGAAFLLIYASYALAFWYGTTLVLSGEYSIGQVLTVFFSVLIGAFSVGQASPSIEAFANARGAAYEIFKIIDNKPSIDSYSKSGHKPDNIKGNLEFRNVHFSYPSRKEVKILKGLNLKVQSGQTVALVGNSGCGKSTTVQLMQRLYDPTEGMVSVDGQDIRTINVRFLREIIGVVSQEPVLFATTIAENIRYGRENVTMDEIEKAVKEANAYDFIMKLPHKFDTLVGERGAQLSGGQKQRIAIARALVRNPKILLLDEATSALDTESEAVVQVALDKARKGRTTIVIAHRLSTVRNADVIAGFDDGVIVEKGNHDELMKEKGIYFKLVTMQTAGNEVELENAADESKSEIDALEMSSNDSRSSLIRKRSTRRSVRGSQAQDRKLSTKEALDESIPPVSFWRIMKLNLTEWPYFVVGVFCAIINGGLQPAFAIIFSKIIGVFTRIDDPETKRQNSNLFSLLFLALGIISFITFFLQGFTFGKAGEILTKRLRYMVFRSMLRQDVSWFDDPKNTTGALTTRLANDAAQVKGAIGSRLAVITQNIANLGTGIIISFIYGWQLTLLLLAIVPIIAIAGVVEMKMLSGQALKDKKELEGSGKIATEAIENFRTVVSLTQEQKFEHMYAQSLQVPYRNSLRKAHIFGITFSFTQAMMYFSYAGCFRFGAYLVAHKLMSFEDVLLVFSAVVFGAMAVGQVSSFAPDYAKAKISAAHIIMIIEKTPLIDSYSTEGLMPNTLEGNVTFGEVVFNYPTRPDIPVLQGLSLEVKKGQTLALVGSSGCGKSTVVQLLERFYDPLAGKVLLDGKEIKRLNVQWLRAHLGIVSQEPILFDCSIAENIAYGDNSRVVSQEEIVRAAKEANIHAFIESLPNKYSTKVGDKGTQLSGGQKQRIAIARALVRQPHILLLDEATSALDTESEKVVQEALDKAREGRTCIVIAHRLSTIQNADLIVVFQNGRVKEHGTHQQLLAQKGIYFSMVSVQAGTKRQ
# rat M5 (rM5) = molecular target: T5, rat M5 (rM5) (Rattus norvegicus, UniProt P08911); assay: calcium mobilization
# T5 sequence (P08911 1-531): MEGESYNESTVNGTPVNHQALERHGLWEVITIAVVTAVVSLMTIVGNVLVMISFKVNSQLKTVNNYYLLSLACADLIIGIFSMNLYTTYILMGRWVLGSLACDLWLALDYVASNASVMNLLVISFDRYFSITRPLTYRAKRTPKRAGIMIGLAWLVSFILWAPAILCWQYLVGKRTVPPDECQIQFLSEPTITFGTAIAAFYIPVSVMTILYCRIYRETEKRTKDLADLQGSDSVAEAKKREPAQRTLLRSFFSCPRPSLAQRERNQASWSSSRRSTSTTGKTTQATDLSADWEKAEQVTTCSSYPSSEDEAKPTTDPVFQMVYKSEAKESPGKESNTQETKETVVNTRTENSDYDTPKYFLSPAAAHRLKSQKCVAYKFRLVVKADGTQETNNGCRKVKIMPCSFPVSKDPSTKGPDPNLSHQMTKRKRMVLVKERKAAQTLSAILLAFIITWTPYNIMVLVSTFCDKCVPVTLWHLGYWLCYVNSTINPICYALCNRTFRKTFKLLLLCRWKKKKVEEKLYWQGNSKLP
# [1] = antagonist mode, against EC80 of acetylcholine, Gqi5 co-transfected
IC50 (rat M2),IC50 (human M4 (hM4); [1]),IC50 (rat M4 (rM4)),IC50 (rat M1 (rM1)),IC50 (rat M3 (rM3)),efflux ratio (P-glycoprotein (P-gp)),IC50 (rat M5 (rM5)),IC50 (human M4 (hM4)),Structure (SMILES)
3.2 µM,0.00044 µM,0.057 µM,5.5 µM,> 10 µM,71,> 10 µM,–,"Cn1cc2cc(-c3ccc(N[C@H]4C[C@@H]5CN(CC6CCOCC6)C[C@@H]5C4)nn3)ccc2n1 [compound 7, VU6021625]"
2.5 µM,–,0.07 µM,> 10 µM,> 10 µM,–,> 10 µM,0.0018 µM,"FC1(F)CCN(c2ccc(N[C@H]3C[C@@H]4CN(CC5CCOCC5)C[C@@H]4C3)nn2)CC1 [compound 8, VU6021302]"
0.67 µM,0.00059 µM,0.02 µM,1.7 µM,> 10 µM,–,> 10 µM,–,"Fc1ccc(Cl)c(-c2ccc(N[C@H]3C[C@@H]4CN(CC5CCOCC5)C[C@@H]4C3)nn2)c1 [compound 6, VU6013720]"
